Results taken from patent publication US20060019971A1, “Treatment of cardiovascular disease with inhibitors of p38 kinase” (priority 2003, published 2006).
“Also recorded” adds a separate entry of the source.

Key:
Format in all cases: cell-based, human
IL-6 mRNA in HPBMCs = experiment: IL-6 gene expression in HPBMCs, real-time PCR; conditions: 1 μM SD, 6 hours
Protocol: FIG. 2(a) illustrates both the effect of CRP on IL-6 secretion from HPBMCs and its modulation by a p38 inhibitor. 8×10^5 HPBMCs were plated in 96-well. After 1 hour medium was removed and cells were incubated with or without 10 μg/ml of purified human CRP in serum-free RPMI 1640. In parallel experiments cells were treated with 10% FCS together with the CRP treatment. For the p38 antagonism, the p38 inhibitor was added to a final concentration of 1 μM in the parallel treatment. After 6 hours the conditioned medium was collected and IL-6 and IL-8 levels were determined by ELISA. FIG. 2(b) illustrates the effects of p38 inhibitor concentration on CRP induced IL-6 secretion from HPBMCs. 3×10^5 HPBMCs were plated in 96-well. After 1 hour medium was removed and cells were incubated with 10 μg/ml of purified human CRP plus 10% FCS in the presence of varying concentrations of p38 inhibitor. After 4 hours conditioned medium were collected and IL-6 level was determined by ELISA. […] After 6 hours RNA was extracted from the cells and IL-6 expression level was determined by real-time PCR as described in Experimental section. […]
(§1) RNA was extracted from the cells using Qiagen RNA extraction kit according to the manufacturer's instruction. The expression of pro-inflammatory genes IL-1β, IL-6, IL-8, TNFα, COX-2, ET-1, TF were assessed by real-time PCR. […]

[1] = tested on: IL-8 secretion from HPBMCs; experiment: IL-8 secretion from HPBMCs, ELISA; conditions: 1 μM SD pre-treatment, all the conditions (control, CRP, FCS, CRP plus FCS), 6 hours
Protocol: (§2) 8×10^5 HPBMCs were plated in 96-well. After 1 hour medium was removed and cells were incubated with or without 10 μg/ml of purified human CRP in serum-free RPMI 1640. In parallel experiments cells were treated with 10% FCS together with the CRP treatment. For the p38 antagonism, p38 inhibitor was added to a final concentration of 1 μM in the parallel treatment. After 6 hours conditioned medium were collected and IL-6 and IL-8 levels were determined by ELISA. […] 5×10^6 HPBMCs were plated in 6-well. After 1 hour medium was removed and cells were treated with vehicle or 1 μM p38 inhibitor in RPMI 1640 medium. After 1 hour cells were stimulated with 10% FCS only or 10 μg/ml CRP plus 10% FCS. After 2 hours RNA was extracted from the cells and IL-8 expression level was determined by real-time PCR as described in the Experimental section.
Cryopreserved human peripheral blood monocytes (HPBMCs, from Biowitker, Walkersvill, Md.) were thawed and washed twice in RPMI 1640. Cells were plated in tissue culture plates and incubated in 5% CO2 at 37 C. […]
Conditioned media from the treated cells were collected (6 to 20 hrs), and the level of secreted interleukin 6 (IL-6), interleukin 1 beta (IL-1 β), tumor necrosis factor alpha (TNFα), and interleukin 8 (IL-8) was determined by ELISA according to the manufacturer's instruction (Biosource International, Camarillo, Calif.). […]

IL-8 mRNA in HPBMCs = experiment: IL-8 gene expression in HPBMCs, real-time PCR; conditions: 1 μM SD
Protocol: as §2
Cryopreserved human peripheral blood monocytes (HPBMCs, from Biowitker, Walkersvill, Md.) were thawed and washed twice in RPMI 1640. Cells were plated in tissue culture plates and incubated in 5% CO2 at 37 C. After 1 hr media were removed and cells were treated with various treatments. […]
as §1

TF mRNA in HPBMCs = experiment: Tissue Factor mRNA expression in HPBMCs, real-time PCR; conditions: 1 μM SD, 6 hours
Protocol: The figures illustrate the effects of CRP on TF protein and mRNA expression in HPBMCs and their modulation by p38 inhibitor. 1.5×10^6 HPBMCs were plated in 48-well. After 1 hour medium was removed and cells were incubated with or without 10 μg/ml of purified human CRP in serum-free RPMI 1640. In parallel experiments, cells were treated with 10% FCS together with the CRP treatment. For the p38 antagonism, p38 inhibitor was added to a final concentration of 1 μM in the parallel treatment. After 16 hours cells were lysed and TF protein level was determined by Western blot. TF signal was normalized by GAPDH signal. As shown in FIG. 7(c), after 6 hours TF mRNA level were determined by real-time PCR as described in the Experimental section. […]
as §1
Real-time RT-PCR was performed in a two-step manner. cDNA synthesis and real-time detection were carried out in a PTC-100™ Thermal Cycler (MJ Research Inc, Waltham, Mass.) and an ABI Prism™ 7700 Sequence Detection System (Applied Biosystems, Foster City, Calif.), respectively. […] Relative quantitation of gene expression was performed using the relative standard curve method. […]

Structure (SMILES): C[C@@H]1CN(Cc2ccc(F)cc2)[C@@H](C)CN1C(=O)c1cc2c(C(=O)C(=O)N(C)C)c[nH]c2cc1Cl [Compound 162]
- inhibition of FCS invoked IL-6 mRNA expression (IL-6 mRNA in HPBMCs): almost completely blocked
- inhibition of CRP invoked IL-6 mRNA expression (IL-6 mRNA in HPBMCs; CRP plus 10% FCS): almost completely blocked
- inhibition of IL-8 secretion [1]: almost completely inhibited
- inhibition of FCS invoked IL-8 expression (IL-8 mRNA in HPBMCs): almost completely inhibited
- inhibition of CRP increased IL-8 mRNA level (IL-8 mRNA in HPBMCs; at 6 hours): almost completely inhibited
- inhibition of basal TF mRNA expression (TF mRNA in HPBMCs): almost completely inhibitied
- inhibition of CRP induced TF mRNA expression (TF mRNA in HPBMCs; listed as SD): almost completely inhibitied; also recorded: blocked
